Data published in paper PMC8146912, “Phenolic Compounds of Reynoutria sp. as Modulators of Oral Cavity Lactoperoxidase System” (Antioxidants, 2021).

Experiments:
Assay type in all cases: biochemical
[1] = molecular target: T1, Lactoperoxidase (LPO) (Bos taurus, UniProt P80025); assay: Ellman's reagent assay of OSCN- formation, […] nm
T1 construct: native enzyme from bovine milk, commercial lyophilisate (Sigma-Aldrich), heme-containing, mature secreted form

[2] = molecular target: T1, Lactoperoxidase (LPO); assay: Ellman's reagent assay of OSCN- formation, […] nm; remark: listed apart in the source
[3] = molecular target: T1, Lactoperoxidase (LPO); assay: stopped-flow spectrophotometry, reduction of LPO Compound II to native LPO; conditions: 1 µM LPO, 0.75 µM H2O2, 20 mM phosphate pH 6, 15 °C; one-electron donor in peroxidation cycle

| EC50 [1] [nM] | IC50 [2] [µM] | SMILES | k (Compound II -> Native LPO) [3] |
| --- | --- | --- | --- |
| 1310 ± 239 | 74.1 ± 3.62 | Oc1cc(O)c2c(c1)O[C@H](c1ccc(O)c(O)c1)[C@H](O)C2 [a, (-)-Epicatechin] |  |
| 9 ± 2 | 0.423 ± 0.018 | Oc1ccc(/C=C/c2cc(O)cc(O)c2)cc1 [b, Resveratrol] |  |
|  |  | Cc1cc(O)c2c(c1)C(=O)c1cc(O)cc(O)c1C2=O [c, Emodin] | this compound may be a substrate for LPO Compound I and Compound II |
